ChEMBL document CHEMBL3621178, “Antidiabetic effect of novel benzenesulfonylureas as PPAR-γ agonists and their anticancer effect” (Bioorg Med Chem Lett, 2015)
Activity calls are given as the source filed them. The calls are words filed in the database; no cut-off is given here.

Experiments:
[1] = tested on: T47D; experiment: Growth inhibition of human T47D cells assessed as cell viability at 10 uM incubated for 48 hrs by sulforhodamine B assay; assay type: functional; conditions: read-out: Activity
[2] = tested on: DU-145; experiment: Growth inhibition of human DU145 cells assessed as cell viability at 10 uM incubated for 48 hrs by sulforhodamine B assay; assay type: functional; conditions: DU-145, 48 h, read-out: Activity
[3] = tested on: HCT-116; experiment: Growth inhibition of human HCT116 cells assessed as cell viability at 10 uM incubated for 48 hrs by sulforhodamine B assay; assay type: functional; conditions: HCT-116, 48 h, read-out: Activity
[4] = tested on: A498; experiment: Growth inhibition of human A498 cells assessed as cell viability at 10 uM incubated for 48 hrs by sulforhodamine B assay; assay type: functional; conditions: A498, 48 h, read-out: Activity
[5] = Growth inhibition of human SF295 cells assessed as cell viability at 10 uM incubated for 48 hrs by sulforhodamine B assay; assay type: functional; conditions: SF-295, 48 h, read-out: Activity
[6] = tested on: Malme-3M; experiment: Growth inhibition of human MALME-3M cells assessed as cell viability at 10 uM incubated for 48 hrs by sulforhodamine B assay; assay type: functional; conditions: read-out: Activity
[7] = Growth inhibition of human LOXIMVI cells assessed as cell viability at 10 uM incubated for 48 hrs by sulforhodamine B assay; assay type: functional; conditions: LOX IMVI, read-out: Activity
[8] = tested on: NCI-H23; experiment: Growth inhibition of human NCI-H23 cells assessed as cell viability at 10 uM incubated for 48 hrs by sulforhodamine B assay; assay type: functional; conditions: NCI-H23, 48 h, read-out: Activity
[9] = tested on: UACC-257; experiment: Growth inhibition of human UACC257 cells assessed as cell viability at 10 uM incubated for 48 hrs by sulforhodamine B assay; assay type: functional; conditions: UACC-257, 48 h, read-out: Activity
[10] = tested on: OVCAR-4; experiment: Growth inhibition of human OVCAR4 cells assessed as cell viability at 10 uM incubated for 48 hrs by sulforhodamine B assay; assay type: functional; conditions: OVCAR-4, 48 h, read-out: Activity
[11] = tested on: MDA-MB-231; experiment: Growth inhibition of human MDA-MB-231 cells assessed as cell viability at 10 uM incubated for 48 hrs by sulforhodamine B assay; assay type: functional; conditions: MDA-MB-231, 48 h, read-out: Activity
[12] = tested on: PC-3; experiment: Growth inhibition of human PC3 cells assessed as cell viability at 10 uM incubated for 48 hrs by sulforhodamine B assay; assay type: functional; conditions: PC-3, 48 h, read-out: Activity
[13] = Growth inhibition of human MOLT4 cells assessed as cell viability at 10 uM incubated for 48 hrs by sulforhodamine B assay; assay type: functional; conditions: MOLT-4, 48 h, read-out: Activity
[14] = tested on: NCI-H322M; experiment: Growth inhibition of human NCI-H322M cells assessed as cell viability at 10 uM incubated for 48 hrs by sulforhodamine B assay; assay type: functional; conditions: read-out: Activity
[15] = tested on: SNB-19; experiment: Growth inhibition of human SNB19 cells assessed as cell viability at 10 uM incubated for 48 hrs by sulforhodamine B assay; assay type: functional; conditions: SNB-19, 48 h, read-out: Activity
[16] = tested on: U-251; experiment: Growth inhibition of human U251 cells assessed as cell viability at 10 uM incubated for 48 hrs by sulforhodamine B assay; assay type: functional; conditions: U-251, 48 h, read-out: Activity
[17] = Growth inhibition of human RXF393 cells assessed as cell viability at 10 uM incubated for 48 hrs by sulforhodamine B assay; assay type: functional; conditions: RXF 393, 48 h, read-out: Activity
[18] = tested on: UO-31; experiment: Growth inhibition of human UO31 cells assessed as cell viability at 10 uM incubated for 48 hrs by sulforhodamine B assay; assay type: functional; conditions: UO-31, 48 h, read-out: Activity
[19] = Growth inhibition of human NCI60 cells assessed as cell viability at 10 uM incubated for 48 hrs by sulforhodamine B assay; assay type: functional; conditions: NCI60, 48 h, read-out: Activity
[20] = tested on: HOP-62; experiment: Growth inhibition of human HOP62 cells assessed as cell viability at 10 uM incubated for 48 hrs by sulforhodamine B assay; assay type: functional; conditions: HOP-62, 48 h, read-out: Activity
[21] = tested on: K562; experiment: Growth inhibition of human K562 cells assessed as cell viability at 10 uM incubated for 48 hrs by sulforhodamine B assay; assay type: functional; conditions: K562, 48 h, read-out: Activity
[22] = tested on: CAKI-1; experiment: Growth inhibition of human CAKI-1 cells assessed as cell viability at 10 uM incubated for 48 hrs by sulforhodamine B assay; assay type: functional; conditions: CAKI-1, 48 h, read-out: Activity
[23] = tested on: SR; experiment: Growth inhibition of human SR cells assessed as cell viability at 10 uM incubated for 48 hrs by sulforhodamine B assay; assay type: functional; conditions: read-out: Activity
[24] = tested on: ACHN; experiment: Growth inhibition of human ACHN cells assessed as cell viability at 10 uM incubated for 48 hrs by sulforhodamine B assay; assay type: functional; conditions: read-out: Activity
[25] = Growth inhibition of human HCC2998 cells assessed as cell viability at 10 uM incubated for 48 hrs by sulforhodamine B assay; assay type: functional; conditions: HCC 2998, 48 h, read-out: Activity
[26] = Growth inhibition of human HOP92 cells assessed as cell viability at 10 uM incubated for 48 hrs by sulforhodamine B assay; assay type: functional; conditions: HOP-92, 48 h, read-out: Activity
[27] = tested on: M14; experiment: Growth inhibition of human M14 cells assessed as cell viability at 10 uM incubated for 48 hrs by sulforhodamine B assay; assay type: functional; conditions: M14, 48 h, read-out: Activity
[28] = tested on: KM12; experiment: Growth inhibition of human KM12 cells assessed as cell viability at 10 uM incubated for 48 hrs by sulforhodamine B assay; assay type: functional; conditions: KM12, 48 h, read-out: Activity
[29] = tested on: UACC-62; experiment: Growth inhibition of human UACC62 cells assessed as cell viability at 10 uM incubated for 48 hrs by sulforhodamine B assay; assay type: functional; conditions: UACC-62, 48 h, read-out: Activity
[30] = tested on: MDA-MB-435; experiment: Growth inhibition of human MDA-MB-435 cells assessed as cell viability at 10 uM incubated for 48 hrs by sulforhodamine B assay; assay type: functional; conditions: MDA-MB-435, 48 h, read-out: Activity
[31] = tested on: OVCAR-3; experiment: Growth inhibition of human OVCAR3 cells assessed as cell viability at 10 uM incubated for 48 hrs by sulforhodamine B assay; assay type: functional; conditions: OVCAR-3, 48 h, read-out: Activity
[32] = tested on: MDA-MB-468; experiment: Growth inhibition of human MDA-MB-468 cells assessed as cell viability at 10 uM incubated for 48 hrs by sulforhodamine B assay; assay type: functional; conditions: MDA-MB-468, 48 h, read-out: Activity
[33] = tested on: OVCAR-5; experiment: Growth inhibition of human OVCAR5 cells assessed as cell viability at 10 uM incubated for 48 hrs by sulforhodamine B assay; assay type: functional; conditions: OVCAR-5, 48 h, read-out: Activity
[34] = tested on: NCI-H226; experiment: Growth inhibition of human NCI-H226 cells assessed as cell viability at 10 uM incubated for 48 hrs by sulforhodamine B assay; assay type: functional; conditions: NCI-H226, 48 h, read-out: Activity
[35] = Growth inhibition of human COLO205 cells assessed as cell viability at 10 uM incubated for 48 hrs by sulforhodamine B assay; assay type: functional; conditions: COLO 205, 48 h, read-out: Activity
[36] = tested on: Rattus norvegicus; experiment: Antidiabetic activity in Wistar rat assessed as reduction in blood glucose level at 30 mg/kg, po dosed 30 mins before glucose challenge and measured 30 and 60 mins post glucose challenge by OGTT method; assay type: functional, organism-based

SMILES	viability at 10 µM [1]	viability at 10 µM [2]	viability at 10 µM [3]	viability at 10 µM [4]	viability at 10 µM [5]	viability at 10 µM [6]	viability at 10 µM [7]	viability at 10 µM [8]	viability at 10 µM [9]	viability at 10 µM [10]	viability at 10 µM [11]	viability at 10 µM [12]	viability at 10 µM [13]	viability at 10 µM [14]	viability at 10 µM [15]	viability at 10 µM [16]	viability at 10 µM [17]	viability at 10 µM [18]	viability at 10 µM [19]	viability at 10 µM [20]	also measured
COc1ccc(C2CC(c3cc4ccccc4oc3=O)=NN2c2ccc(S(=O)(=O)NC(=O)Nc3ccccc3C)cc2)cc1 (configuration not stated)	95.8%	111%	82.6%	94.7%	93.8%	104%	92.6%	87.7%	113%	86.9%	65.9%	81%	84.6%	87.1%	102%	99.4%	116%	68.9%	93.4%	87.3%	viability at 10 µM [21]: 76.8%; viability at 10 µM [22]: 83.8%; viability at 10 µM [23]: 80.4%; viability at 10 µM [24]: 89.7%; viability at 10 µM [25]: 107%; viability at 10 µM [26]: 60.7%; viability at 10 µM [27]: 91.8%; viability at 10 µM [28]: 102%; viability at 10 µM [29]: 89.2%; viability at 10 µM [30]: 102%; viability at 10 µM [31]: 107%; viability at 10 µM [32]: 100%; viability at 10 µM [33]: 83.1%; viability at 10 µM [34]: 85.4%; viability at 10 µM [35]: 119%; Activity [36]: Active
COc1ccc(C2CC(c3ccco3)=NN2c2ccc(S(=O)(=O)NC(=O)NCc3ccccc3)cc2)cc1 (configuration not stated)	84.6%	108%	93.9%	96.2%	95.9%	107%	102%	108%	97.9%	97.1%	112%	92.4%	110%	97.5%	108%	99.3%	113%	99.4%	101%	103%	viability at 10 µM [21]: 98%; viability at 10 µM [22]: 97.7%; viability at 10 µM [23]: 107%; viability at 10 µM [24]: 101%; viability at 10 µM [25]: 109%; viability at 10 µM [26]: 80.6%; viability at 10 µM [27]: 102%; viability at 10 µM [28]: 105%; viability at 10 µM [29]: 105%; viability at 10 µM [30]: 103%; viability at 10 µM [31]: 113%; viability at 10 µM [32]: 101%; viability at 10 µM [33]: 102%; viability at 10 µM [34]: 97.1%; viability at 10 µM [35]: 123%; Activity [36]: Active
